Assay results taken from publication PMC11465415, “Characterization of conformational states of the homodimeric enzyme fluoroacetate dehalogenase by ^19F–^13C two-dimensional NMR” (RSC Chemical Biology, 2024).

Biological target: T1, fluoroacetate dehalogenase (FAcD) (Rhodopseudomonas palustris, UniProt Q6NAM1)
T1 construct: gene RPA1163; 300-residue homodimer expressed in E. coli BL21; all Trp replaced biosynthetically by 5-fluoro-(phenyl-13C6)-L-tryptophan; 9 Trp per protomer
Test: […]-13C TROSY HSQC and 1D […] NMR
Type: binding
Conditions: 50 °C; enzyme saturated with bromoacetate; 5-fluorotryptophan-labelled enzyme; active site; unreacted substrate analogue

T1 sequence (Q6NAM1 whole entry): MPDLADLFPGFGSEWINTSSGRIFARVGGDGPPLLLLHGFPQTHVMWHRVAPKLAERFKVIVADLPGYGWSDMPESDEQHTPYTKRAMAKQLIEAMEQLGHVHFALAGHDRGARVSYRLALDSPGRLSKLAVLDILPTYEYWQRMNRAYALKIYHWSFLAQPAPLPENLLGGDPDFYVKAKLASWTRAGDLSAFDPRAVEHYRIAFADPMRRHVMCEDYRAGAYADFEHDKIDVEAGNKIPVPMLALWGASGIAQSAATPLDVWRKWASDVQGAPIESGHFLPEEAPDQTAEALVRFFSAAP

O=C(O)CBr [bromoacetate]
19F-13C TROSY HSQC and 1D 19F NMR: The addition of BrAc is also observed to result in a pronounced shift for W185
